Results taken from ChEMBL document CHEMBL1201862, “PubChem BioAssay data set” (2004).
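Where inhibition never reached the appropriate level, the endpoint shown equals the highest concentration tested. Otherwise, values were interpolated linearly from a five-concentration, 48-hour dose response in 96-well plates. Abbreviation: GI50, concentration required for 50% inhibition of growth.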 The source made the active and inactive calls. Cut-off read from the data, not from the text of the source: active = GI50 up to about 1.1 µM and inactive = higher.

Legend:
Test in all cases: NCI anticancer screen, dose series, 48 h
DMS-114 = system: DMS-114
HOP-18 = system: HOP-18
786-0 = system: 786-0
RXF 631 = system: RXF 631
BT-549 = system: BT-549
MCF7 = system: MCF7
DU-145 = system: DU-145
MDA-MB-435 = system: MDA-MB-435
DMS-273 = system: DMS-273

| SMILES | GI50 (DMS-114) | GI50 (HOP-18) | GI50 (786-0) | GI50 (RXF 631) | GI50 (BT-549) | GI50 (MCF7) | GI50 (DU-145) | GI50 (MDA-MB-435) | GI50 (DMS-273) |
| --- | --- | --- | --- | --- | --- | --- | --- | --- | --- |
| Cc1c(OC(C)C(=O)O)ccc2c(-c3ccccc3)cc(=O)oc12 (centres undefined) | > 100 µM (inactive) | > 100 µM (inactive) | > 100 µM (inactive) | > 100 µM (inactive) |  |  |  |  |  |
| COc1cccc(C2c3cc4c(cc3OC(N3CCOCC3)C2C)OCO4)c1 (centres undefined) |  |  |  |  | 3.39 µM (inactive) | 6.61 µM (inactive) | 31.8 µM (inactive) |  |  |
| COc1ccc(-c2cs/c(=N\c3ccccc3)n2CCCN(C)C)cc1 |  |  |  |  | 19.2 µM (inactive) |  |  | 18.4 µM (inactive) |  |
| Cc1cc(C)nc(NS(=O)(=O)c2ccc(NC(=O)c3cccc4c(Nc5ccc(S(=O)(=O)Nc6cc(C)on6)cc5)c5ccccc5nc34)cc2)n1 | 20.7 µM (inactive) |  |  |  |  |  |  |  |  |
| O=C(Nc1ccc(Cl)c(Cl)c1)C(=O)C(C(=O)c1ccccc1F)C1OC(=O)c2ccccc21 (centres undefined) | 18.7 µM (inactive) |  |  |  |  |  |  |  | 13.2 µM (inactive) |
| CC1(Br)S(=O)(=O)OCCOS1(=O)=O | > 100 µM (inactive) |  | > 100 µM (inactive) |  |  |  |  |  | > 100 µM (inactive) |
| ON(Cc1ccccc1)C(=S)c1ccccc1 | 2.22 µM (inactive) | 15.9 µM (inactive) | 4.82 µM (inactive) | 5.38 µM (inactive) | 39.2 µM (inactive) | 3.28 µM (inactive) | 7.38 µM (inactive) |  | 2.62 µM (inactive) |
| O=c1cc(O)c1=O |  |  |  |  | > 100 µM (inactive) | > 100 µM (inactive) | > 100 µM (inactive) | > 100 µM (inactive) |  |
| COc1ccc2c(c1)OC(c1ccccc1O)CC2=O (centres undefined) |  | 5.64 µM (inactive) | 40.5 µM (inactive) |  |  |  |  |  |  |
| N=c1n(C(=O)N2CCCC2)c2cc(Cl)ccc2n1C1=NCCN1 |  |  | 54 µM (inactive) |  | 60.1 µM (inactive) | 35.8 µM (inactive) | 50 µM (inactive) | 52 µM (inactive) |  |
| COc1ccc(NC(=O)C(=O)NNC(=O)c2sc(NNC(C)=O)nc2C)c([N+](=O)[O-])c1 | > 100 µM (inactive) |  | > 100 µM (inactive) |  |  |  |  |  | > 100 µM (inactive) |
| C#CCN(Cc1ccc2nc(-c3ccccc3)c(Cl)nc2c1)c1ccc(F)cc1 |  |  | > 100 µM (inactive) |  | > 100 µM (inactive) | 63.8 µM (inactive) | 95.7 µM (inactive) | > 100 µM (inactive) |  |
| COc1nc(N=P(c2ccccc2)(c2ccccc2)c2ccccc2)cc(=O)n1C |  |  | > 100 µM (inactive) |  | > 100 µM (inactive) | > 100 µM (inactive) | > 100 µM (inactive) | > 100 µM (inactive) |  |
| CCOC(=O)c1sc2nc(SC)nc(N3CCCCC3)c2c1N |  |  | > 100 µM (inactive) |  | > 100 µM (inactive) |  | > 100 µM (inactive) | > 100 µM (inactive) |  |
| O=C(NC(Cc1ccc(Cl)cc1)C(=O)O)c1ccc(I)cc1 (centres undefined) |  | > 100 µM (inactive) |  |  |  | > 67 µM (inactive) |  |  | > 100 µM (inactive) |
| CCOC(=O)C1(C#N)C(c2ccccc2)CC(O)(c2ccc(OC)cc2)C(C(=O)c2ccc(OC)cc2)C1c1ccccc1 (centres undefined) | > 100 µM (inactive) | 15.6 µM (inactive) | > 100 µM (inactive) |  |  |  |  |  | > 100 µM (inactive) |
| Brc1cc(CCOC2CCCCO2)c(-c2sccc2CCOC2CCCCO2)s1 (centres undefined) |  |  | 35.1 µM (inactive) |  | 49.7 µM (inactive) | 20.3 µM (inactive) | > 100 µM (inactive) | 37.7 µM (inactive) |  |
| CC1CC(c2ccccc2)=Nc2ccccc2S1 (centres undefined) | > 100 µM (inactive) |  |  | > 100 µM (inactive) |  |  |  |  | > 100 µM (inactive) |

| SMILES | GI50 (DMS-114) | GI50 (HOP-18) | GI50 (786-0) | GI50 (RXF 631) | GI50 (BT-549) | GI50 (MCF7) | GI50 (DU-145) | GI50 (MDA-MB-435) | GI50 (DMS-273) |
| --- | --- | --- | --- | --- | --- | --- | --- | --- | --- |
| CCc1ncc(C(C)(O)c2ccccc2)n1Cc1ccccc1 (centres undefined) |  |  |  |  | 45.3 µM (inactive) | 67.8 µM (inactive) | > 100 µM (inactive) | 22.4 µM (inactive) |  |
| CC(C)CCNc1ncnc2[nH]ncc12 |  |  | > 100 µM (inactive) |  | > 100 µM (inactive) | 72.8 µM (inactive) | > 100 µM (inactive) | 97.5 µM (inactive) |  |
| Cn1c(=O)c(Cl)c(N=[N+]=[N-])c2ccccc21 |  |  |  |  |  | 67.3 µM (inactive) | > 100 µM (inactive) |  |  |
| CC1=CC(=O)CC2(C)CCC(C(C)CC(=O)CC(C)C)CC12 (centres undefined) |  |  | 16.4 µM (inactive) |  |  | 25.6 µM (inactive) | 62.4 µM (inactive) | 20.3 µM (inactive) |  |
| CCOC(=O)CCC1(C(=O)OCC)CCCCC1=O (centres undefined) | > 100 µM (inactive) | 81.8 µM (inactive) | > 100 µM (inactive) |  |  |  |  |  | > 100 µM (inactive) |
| CC(O)(P(=O)(O)O)P(=O)(O)OCC(O)CN1CCOCC1 (centres undefined) |  |  | > 100 µM (inactive) |  | > 100 µM (inactive) | > 100 µM (inactive) | > 100 µM (inactive) | > 100 µM (inactive) |  |
| CCCCCCCc1cscc1-c1cscc1Br |  |  | 57 µM (inactive) |  | > 100 µM (inactive) | 34.8 µM (inactive) | 48.4 µM (inactive) | 35.9 µM (inactive) |  |
| C=CCNC(=O)N(CCC)CCCC(NC(C)=O)C(=O)NCc1ccccc1 (centres undefined) | > 100 µM (inactive) | 16.3 µM (inactive) | > 100 µM (inactive) | > 100 µM (inactive) |  |  |  |  | > 100 µM (inactive) |
| CC(C)C1=C(O)C(=O)C2=C(C1=O)C(OC=O)C(O)C1C(C)(C)CCCC21C (centres undefined) |  |  | 4.09 µM (inactive) |  | 8.36 µM (inactive) | 11.4 µM (inactive) | 5.06 µM (inactive) | 2.73 µM (inactive) |  |
| O=c1oc2ccc(-n3c(=O)c4ccccc4c4ccccc4c3=O)cc2c2ccccc12 |  |  | 66.2 µM (inactive) |  | 57.1 µM (inactive) | > 100 µM (inactive) |  | > 100 µM (inactive) |  |
| CCOC(=O)Cc1cc(OC)c(OC)cc1/C(Cl)=C(\CO)c1ccc(OC)c(OC)c1 | 66.5 µM (inactive) | > 100 µM (inactive) |  | > 100 µM (inactive) |  |  |  |  | > 100 µM (inactive) |
| C=C(C)C1Cc2c(cc(O)c3c(=O)c4ccccc4n(C)c23)O1 (centres undefined) | > 100 µM (inactive) | 16 µM (inactive) |  | 37 µM (inactive) |  |  |  |  | 31.3 µM (inactive) |
| COc1cc(C2c3cc4c(cc3[C@@H](Nc3cccc(CO)c3)C3COC(=O)[C@H]23)OCO4)cc(OC)c1O (some centres undefined) | 0.427 µM (active) | 1.1 µM (active) |  |  |  | 0.22 µM (active) |  |  | 0.153 µM (active) |
| Nc1ncnc2c1ncn2C1C(O)C=C(CO)C1O (centres undefined) | > 625 µM (inactive) | > 625 µM (inactive) |  |  |  | > 625 µM (inactive) |  |  | > 625 µM (inactive) |
| COC(=O)N[C@H](C(=O)NC(OCc1ccccc1)C1COC(C)(C)O1)C(C)O[Si](C)(C)C(C)(C)C (some centres undefined) |  |  | > 100 µM (inactive) |  |  | 27.6 µM (inactive) | > 100 µM (inactive) |  |  |
| OC1(c2ccc(Cl)cc2)c2ccc3ccccc3c2C2=N[C@H]3CCCC[C@@H]3N21 (some centres undefined) |  |  |  |  |  | 8.45 µM (inactive) | 3.39 µM (inactive) | 10.7 µM (inactive) |  |
| O=c1c2cc(I)ccc2nc(-c2cccs2)n1O |  |  | 55.2 µM (inactive) |  | 33.2 µM (inactive) | 50 µM (inactive) | 27.7 µM (inactive) | 34.8 µM (inactive) |  |
| S=C=NCCc1ccccc1 [PHENETHYLISOTHIOCYANATE] | 0.382 µM (active) |  | 0.188 µM (active) |  |  |  |  |  | 0.255 µM (active) |
